Test results as given in US10195185B2, “3-(1H-imidazo[4,5-C]pyridin-2-yl)-1H-pyrazolo[4,3-B]pyridines and therapeutic uses thereof” (Samumed, LLC, priority 2015, dated 2019).

Columns and labels:
Assay type in all cases: cell-based
[1] = test system: Primary human fibroblasts derived from IPF patients (LL29 cells) treated with TGF-β1; assay: Inhibition of the fibrotic process: αSMA staining in TGF-β1 treated fibroblasts; settings: Fibroblast, 96 h, LL29 fibroblasts treated with TGF-β1, 4 days; for inhibition at 10 µM: read-out: percent inhibition in brackets beside EC50 >10 μM
Method in brief: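 Compound dilutions from 10 μM down to […] are dispensed, LL29 cells added in F12 with 1% FBS, and TGF-β1 (20 ng/mL) follows after 1 h. After 4 days, live-cell αSMA positivity is measured by immunofluorescence and normalized to TGF-β1-treated wells to derive EC50.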

[2] = test system: Wnt activity (Wnt-responsive human Sp5 promoter, TCF/LEF binding sites) in SW480 colon carcinoma cells; assay: Wnt activity screening assay: Sp5-Luc luciferase reporter gene in SW480 cells; settings: for EC50: 10-point dose-response from 10 μM, incubated overnight; for inhibition at 10 µM: given for EC50 of >10 μM, read-out: percent inhibition at 10 μM
Method in brief: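 Wnt-driven firefly luciferase in SW480 colon carcinoma cells reports pathway activity after overnight compound exposure (10 μM top concentration, 3-fold steps). Signal is normalized to DMSO controls.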

SW480 colon cancer cells = assay: Cell viability assay (CellTiter-Blue), four days; settings: Homo sapiens, 96 h; for inhibition at 10 µM: read-out: percent inhibition at 10 μM (given for EC50 of >10 μM); for EC50: CellTiter-Blue cell viability
Method in brief: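 Approximately 2×10^3 SW480 cells per well are seeded with compound (8 points, threefold steps, top 10 μM) and incubated four days at 37 °C. CellTiter-Blue is then added for about 3 h and fluorescence read. Non-linear regression gives EC50; for values beyond 10 μM, percent inhibition at that concentration is listed.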

Row | Structure (SMILES) | EC50 [1] | inhibition at 10 µM [1] | EC50 [2] | inhibition at 10 µM [2] | inhibition at 10 µM (SW480 colon cancer cells) | EC50 (SW480 colon cancer cells)
1 | O=C(Nc1cncc(-c2ccc3[nH]nc(-c4nc5c(-c6ccncc6)nccc5[nH]4)c3n2)c1)C1CCCCC1 [Compound 135, N-(5-(3-(4-(pyridin-4-yl)-1H-imidazo[4,5-c]pyridin-2-yl)-1H-pyrazolo[4,3-b]pyridin-5-yl)pyridin-3-yl)cyclohexanecarboxamide] | > 10 µM | 0% | > 10 µM | 2.8% | 1% | > 10 µM
2 | CCC(=O)Nc1cncc(-c2ccc3[nH]nc(-c4nc5c(-c6cccs6)nccc5[nH]4)c3n2)c1 [Compound 337, N-(5-(3-(4-(Thiophen-2-yl)-1H-imidazo[4,5-c]pyridin-2-yl)-1H-pyrazolo [4,3-b]pyridin-5-yl)pyridin-3-yl)propionamide] | 1.08 µM | – | > 10 µM | 31.8% | 39.4% | > 10 µM
3 | Cn1cc(-c2ccc3[nH]nc(-c4nc5c(N6CCCCC6)nccc5[nH]4)c3n2)c(CO)n1 [Compound 1133, (1-Methyl-4-(3-(4-(piperidin-1-yl)-1H-imidazo[4,5-c]pyridin-2-yl)-1H-pyrazolo [4,3-b]pyridin-5-yl)-1H-pyrazol-3-yl)methanol] | 1.06 µM | – | > 10 µM | 49.6% | 28.2% | > 10 µM
4 | CCC(=O)Nc1cncc(-c2ccc3[nH]nc(-c4nc5c(N6CCCCC6)nccc5[nH]4)c3n2)c1 [Compound 169, N-(5-(3-(4-(Piperidin-1-yl)-1H-imidazo[4,5-c]pyridin-2-yl)-1H-pyrazolo [4,3-b]pyridin-5-yl)pyridin-3-yl)propionamide] | 7.89 µM | – | 4.2 µM | – | – | 3.8 µM
5 | COc1cccc(-c2nccc3[nH]c(-c4n[nH]c5ccc(-c6cncc(OC7CCNCC7)c6)nc45)nc23)c1 [Compound 1025, 3-(4-(3-Methoxyphenyl)-1H-imidazo[4,5-c]pyridin-2-yl)-5-(5-(piperidin-4-yloxy)pyridin-3-yl)-1H-pyrazolo[4,3-b]pyridine] | 3.33 µM | – | > 10 µM | 15.1% | 12.7% | > 10 µM
6 | CC(C)(C)CC(=O)Nc1cncc(-c2ccc3[nH]nc(-c4nc5c(-c6ccccc6F)nccc5[nH]4)c3n2)c1 [Compound 72, N-(5-(3-(4-(2-fluorophenyl)-1H-imidazo[4,5-c]pyridin-2-yl)-1H-pyrazolo [4,3-b]pyridin-5-yl)pyridin-3-yl)-3,3-dimethylbutanamide] | > 10 µM | 0% | > 10 µM | 8.1% | 4.1% | > 10 µM
7 | CC(C)(C)CC(=O)Nc1cncc(-c2ccc3[nH]nc(-c4nc5cnccc5[nH]4)c3n2)c1 [Compound 268, N-(5-(3-(1H-Imidazo[4,5-c]pyridin-2-yl)-1H-pyrazolo[4,3-b]pyridin-5-yl)pyridin-3-yl)-3,3-dimethylbutanamide] | > 10 µM | 0% | > 10 µM | 9.5% | 0% | > 10 µM
8 | CC(C)CC(=O)Nc1cncc(-c2ccc3[nH]nc(-c4nc5c(-c6ccc(Cl)s6)nccc5[nH]4)c3n2)c1 [Compound 1037, N-(5-(3-(4-(5-Chlorothiophen-2-yl)-1H-imidazo[4,5-c]pyridin-2-yl)-1H-pyrazolo [4,3-b]pyridin-5-yl)pyridin-3-yl)-3-methylbutanamide] | 0.776 µM | – | 0.719 µM | – | – | 1.16 µM
9 | Cc1cn(-c2nccc3[nH]c(-c4n[nH]c5ccc(-c6cncc(NC(=O)C(C)(C)C)c6)nc45)nc23)cn1 [Compound 204, N-(5-(3-(4-(4-Methyl-1H-imidazol-1-yl)-1H-imidazo[4,5-c]pyridin-2-yl)-1H-pyrazolo[4,3-b]pyridin-5-yl)pyridin-3-yl)pivalamide] | > 10 µM | 8.1% | > 10 µM | 21% | 0% | > 10 µM
